Test results: US20230257376A1, “ROCK INHIBITOR, AND PREPARATION METHOD THEREFOR AND USE THEREOF” (WUHAN LL SCIENCE AND TECHNOLOGY DEVELOPMENT CO., LTD., priority 2020, published 2023)

Target: T1, ROCK2 kinase (Homo sapiens, UniProt O75116)
T1 construct: purchased Invitrogen PV3759
Assay: In vitro evaluation of ROCK2 kinase activity (HTRF KinEASE-STK time-resolved fluorometric assay)
Assay type: biochemical
Conditions: ROCK2 kinase 0.4 ng/μL, ATP 6.739 μM
Experimental: ROCK2 activity screening. ROCK2 activity was detected using a 96-well (Cisbio) time-resolved fluorometric assay. The assay for ROCK2 was performed in the following assay buffer: 5 mM MgCl2 (Sigma), 1 mM DTT (Sigma) and 1× kinase buffer. The kinase buffer was used for dilution. 7.5 μL of ROCK2 kinase (Invitrogen, PV3759) was added to a 96-well microplate to reach a final concentration of 0.4 ng/μL, and then 0.25 μL of test compound (DMSO content: 1% (volume fraction)) was added. The mixture was incubated at room temperature for 0.5 h. To start the reaction, the kinase buffer was used to mix ATP (Aladdin) and the substrate STK-substrate 2-biotin. 7.5 μL of the mixed solution was added to the microplate to reach final concentrations of 6.739 μM and 1 μM. The resulting mixture was incubated at room temperature for 2 h. 5 mL of detection buffer was mixed with STK antibody-Cryptate, and then an appropriate volume of the mixture was mixed with an equal volume of streptavidin-XL665. 10 μL of the resulting mixture was added to the microplate to stop the reaction. After further incubation for about 1 h, the microplate was read on a Molecular Devices SpectraMax i3x multifunctional microplate reader. The kinase buffer, the STK-substrate 2-biotin, the detection buffer, the STK antibody-Cryptate, and the streptavidin-XL665 were all from HTRF KinEASE-STK kit (Cisbio, 1000 tests, 61GSTXLA).

T1 sequence (O75116 whole entry): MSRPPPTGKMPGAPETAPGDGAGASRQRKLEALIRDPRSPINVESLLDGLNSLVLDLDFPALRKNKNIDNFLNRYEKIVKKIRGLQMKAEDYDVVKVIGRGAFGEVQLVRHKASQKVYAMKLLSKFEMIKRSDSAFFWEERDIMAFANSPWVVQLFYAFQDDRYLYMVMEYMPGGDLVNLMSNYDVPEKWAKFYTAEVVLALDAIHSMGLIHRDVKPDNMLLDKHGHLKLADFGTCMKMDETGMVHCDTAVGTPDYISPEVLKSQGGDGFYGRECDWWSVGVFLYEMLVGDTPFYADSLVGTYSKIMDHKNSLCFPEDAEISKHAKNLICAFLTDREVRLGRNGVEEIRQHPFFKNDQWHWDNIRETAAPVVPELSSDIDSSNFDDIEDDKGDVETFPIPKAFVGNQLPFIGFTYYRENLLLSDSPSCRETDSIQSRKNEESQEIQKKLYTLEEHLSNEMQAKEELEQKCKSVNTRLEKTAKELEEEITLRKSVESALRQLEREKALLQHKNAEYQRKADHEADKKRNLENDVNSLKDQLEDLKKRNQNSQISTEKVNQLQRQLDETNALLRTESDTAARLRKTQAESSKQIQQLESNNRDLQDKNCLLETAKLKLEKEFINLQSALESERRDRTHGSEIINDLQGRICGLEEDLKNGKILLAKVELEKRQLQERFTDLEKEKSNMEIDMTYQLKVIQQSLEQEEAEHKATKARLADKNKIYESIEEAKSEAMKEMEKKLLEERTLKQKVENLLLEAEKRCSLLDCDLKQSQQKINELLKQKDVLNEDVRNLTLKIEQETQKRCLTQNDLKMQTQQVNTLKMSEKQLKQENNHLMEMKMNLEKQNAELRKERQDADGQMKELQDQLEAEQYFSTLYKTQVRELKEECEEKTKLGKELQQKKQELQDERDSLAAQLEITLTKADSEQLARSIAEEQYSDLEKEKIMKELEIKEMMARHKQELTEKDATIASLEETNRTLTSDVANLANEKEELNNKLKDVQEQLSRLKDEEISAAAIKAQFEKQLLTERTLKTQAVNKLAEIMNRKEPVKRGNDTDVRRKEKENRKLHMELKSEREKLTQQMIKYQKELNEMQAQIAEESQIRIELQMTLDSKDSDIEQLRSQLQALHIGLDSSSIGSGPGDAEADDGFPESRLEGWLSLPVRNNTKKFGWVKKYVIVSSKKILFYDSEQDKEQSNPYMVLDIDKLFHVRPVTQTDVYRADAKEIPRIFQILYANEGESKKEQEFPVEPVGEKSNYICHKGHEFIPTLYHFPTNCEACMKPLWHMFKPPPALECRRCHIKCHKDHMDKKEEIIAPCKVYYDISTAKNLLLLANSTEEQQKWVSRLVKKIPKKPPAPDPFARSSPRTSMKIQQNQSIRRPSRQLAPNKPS

Structure (SMILES)	IC50
Cn1c(C(=O)O)cc2c1CN(c1nccc(Nc3ccc(-c4cn[nH]c4)cc3)n1)CC2 [Compound L001, 6-(4-((4-(1H-pyrazol-4-yl)phenyl)amino)pyrimidin-2-yl)-1-methyl-4,5,6,7-tetrahydro-1H-pyrrolo[2,3-c]pyridine-2-carboxylic Acid]	> 4.5 µM
O=C(O)c1cn2c(n1)CN(c1nccc(Nc3ccc(-c4cn[nH]c4)cc3)n1)CC2 [Compound L002, 7-(4-((4-(1H-pyrazol-4-yl)phenyl)amino)pyrimidin-2-yl)-5,6,7,8-tetrahydroimidazo[1,2-a]pyrazine-2-carboxylic Acid]	> 4.5 µM
O=C(c1cc2n(n1)CCN(c1nccc(Nc3ccc(-c4cn[nH]c4)cc3)n1)C2)N1CC(F)(F)C1 [Compound L003, (5-(4-((4-(1H-pyrazol-4-yl)phenyl)amino)pyrimidin-2-yl)-4,5,6,7-tetrahydropyrazolo[1,5-a]pyrazin-2-yl)(3,3-difluoroazetidin-1-yl)methanone]	> 4.5 µM
Cn1c(C(=O)N2CC(F)(F)C2)cc2c1CN(c1nccc(Nc3ccc(Oc4ncccc4C(N)=O)c(F)c3)n1)CC2 [Compound L007, 2-(4-((2-(2-(3,3-difluoroazetidin-1-carbonyl)-1-methyl-1,4,5,7-tetrahydro-6H-pyrrolo[2,3-c]pyridin-6-yl)pyrimidin-4-yl)amino)-2-fluorophenoxy)nicotinamide]	0.5 to 4.5 µM
CC(C)NC(=O)c1cc2c(n1C)CN(c1nccc(Nc3ccc(-c4cn[nH]c4)cc3)n1)CC2 [Compound L009, 6-(4-((4-(1H-pyrazol-4-yl)phenyl)amino)pyrimidin-2-yl)-N-isopropyl-1-methyl-4,5,6,7-tetrahydro-1H-pyrrolo[2,3-c]pyridine-2-carboxamide]	0.5 to 4.5 µM
O=C(c1ccc2nn(-c3nccc(Nc4ccc(-c5cn[nH]c5)cc4)n3)cc2c1)N1CC(F)(F)C1 [Compound L011, (2-(4-((4-(1H-pyrazol-4-yl)phenyl)amino)pyrimidin-2-yl)-2H-indazol-5-yl)(3,3-difluoroazetidin-1-yl)methanone]	0.5 to 4.5 µM
O=C(O)c1cc2n(c1)CCN(c1nccc(Nc3ccc(-c4cn[nH]c4)cc3)n1)C2 [Compound L013, 2-(4-((4-(1H-pyrazol-4-yl)phenyl)amino)pyrimidin-2-yl)-1,2,3,4-tetrahydropyrrolo[1,2-a]pyrazine-7-carboxylic Acid]	> 4.5 µM
CN(C(=O)c1cc2c(n1C)CN(c1nccc(Nc3ccc(-c4cn[nH]c4)cc3)n1)CC2)C1CC(F)(F)C1 [Compound L014, 6-(4-((4-(1H-pyrazol-4-yl)phenyl)amino)pyrimidin-2-yl)-N-(3,3-difluorocyclobutyl)-N,1-dimethyl-4,5,6,7-tetrahydro-1H-pyrrolo[2,3-c]pyridine-2-carboxamide]	> 4.5 µM
CN(C(=O)c1cn2c(n1)CN(c1nccc(Nc3ccc(-c4cn[nH]c4)cc3)n1)CC2)C1CC(F)(F)C1 [Compound L022]	0.5 to 4.5 µM
O=C(c1cc2n(c1)CCN(c1nccc(Nc3ccc(-c4cn[nH]c4)cc3)n1)C2)N1CC(F)(F)C1 [Compound L025, (2-(4-((4-(1H-pyrazol-4-yl)phenyl)amino)pyrimidin-2-yl)-1,2,3,4-tetrahydropyrrolo[1,2-a]pyrazin-7-yl)(3,3-difluoroazetidin-1-yl)methanone]	> 4.5 µM
